Results published in US20240123022A1, “A STABLE ANTI-ANGIOGENIC AND ANTI-INFLAMMATORY PHARMACEUTICAL FORMULATION AND PHARMACEUTICAL COMBINATION FOR TREATMENT AND PREVENTION OF PSORIASIS” (priority 2021, published 2024).

Assays:
HaCaT cells = test: TUNEL assay; format: cell-based, human; settings: 48 h
Method: Terminal deoxynucleotidyl transferase (TdT) dUTP Nick-End Labeling (TUNEL) assay has been designed to detect apoptotic cells that undergo extensive DNA degradation during the late stages of apoptosis. […] Cells were treated with test item (IS217 of 100 μg/ml-5000 μg/ml) and positive controls like curcumin (10 μM and 20 μM), anthralin (1 μM) and betullininc acid (10 μg/ml, 20 μg/ml, 50 μg/ml). After about 48 hours of treatment, cells were analysed for the apoptotic effect via TUNEL assay. Absorbance was measured using ELISA reader (Table 1).

IL-23 secretion = test: Inhibition of IL-23 secretion in monocytes THP-1 (LPS and IFN-γ, ELISA); format: cell-based, human
Method: The study was conducted to assess anti-inflammatory potential of test item, IS217 in human monocytic cell line (THP-1) by assessing percentage inhibition of IL-23 in monocytes by using ELISA method.
Curcumin was taken as positive control for in-house validation. For determining inhibitory activity against IL-23 secretion, human monocytic cell line (THP-1) was treated with concentration range of 10-5000 μg/ml with LPS (1 μg/ml) and IFN-γ. LPS (1 μg/ml) and IFN-γ (100 ng/ml) alone were taken as a positive control. After about 24 hours of incubation, IL-23 levels were estimated by ELISA in supernatants corresponding to non-cytotoxic concentrations at 10 to 5000 μg/ml and absorbance of samples was determined by using ELISA reader.

IL-17 secretion = test: IL-17 inhibition in ConA stimulated splenocytes (ELISA); format: cell-based, C57BL/6 mice; settings: Mus musculus, Splenocyte, read-out: inhibition of IL-17 w.r.t. control (ConA) levels
Method: The study was conducted to assess anti-inflammatory potential of test item IS217 in murine splenocytes isolated from C57BL/6 mice for assessing percentage inhibition of IL-17 in splenocytes by using ELISA method. […] Curcumin was taken as positive control for in-house validation.
For determining inhibitory activity against IL-17 secretion level, splenocytes cells were treated with the concentration range of 10 to 5000 μg/ml along with Con A stimulation (5 μg/ml), Con A alone treated cells were used as a positive control. After incubating for about 24 hours, IL-17 levels were estimated by ELISA corresponding to non-cytotoxic concentrations at 10 to 2000 μg/ml and absorbance of samples was determined by using ELISA reader.

VEGF secretion [1] = test: cells; settings: Homo sapiens, HaCaT, read-out: inhibition of VEGF
[2] = test system: TPA induced ear inflammation model in C57BL/6 mice; test: IS217 alone and in combination with methotrexate and betamethasone in TPA induced ear inflammation model; format: in vivo
Method: The experimental procedure, doses and route of administration were same as IMQ model. Test item IS217 was administered subcutaneously either alone or in combination with standard methotrexate (MTX) and betamethasone (BD) to diseased animals.

[3] = test system: human keratinocytes (HaCaT) cells; test: Cytotoxicity of methotrexate in combination with IS217, combination index method (MTT); format: cell-based; settings: methotrexate alone 0.01-5 μM, 72 h
Method: Assessment of cytotoxicity of methotrexate in combination with IS217 on proliferation of human keratinocytes (HaCaT) cells was performed by using combination index method. HaCaT cell line is maintained by using DMEM, 10% FBS, CO2 incubator and after overnight incubation cells were replenished by using about 1% FBS and then the cells were treated with different concentrations (0.01, 0.1, 0.25, 0.5, 1, 5 μM) of methotrexate alone, IS217 (10, 50, 500, 1000, 2000, 5000 μg/ml) alone, combination of methotrexate (0.01, 0.1, 0.25, 0.5, 1, 5 μM) and IS217 (10, 50, 500, 1000, 2000, 5000 μg/ml) to achieve different combinations.
IS217 was added to the above combinations every 24 hours (i.e., three doses) whereas methotrexate was added only once in 72 hours during the 72 hours of incubation. Then the plates were subjected for MTT assay and percentage inhibition (cytotoxicity) corresponding to each treatment was calculated.

HUVEC cells = test: Tube formation assay in HUVEC cells (VEGF induced); format: cell-based, human; parameters: Tube formation assay results, Avg: scale not given here
Method: HUVEC cells were used as test system to determine angiogenic effect of IS217 by assessing the inhibitory effects of test item on endothelial cells tube formation. Prior to the tube formation assay, test item of concentration ranging 0.01 μg/ml to 1000 μg/ml were used to treat endothelial cells for its cytotoxicity effect to assess suitable concentration for tube formation assay. […] The cells corresponding to positive control group were treated with bevacizumab of concentration 1000 μg/ml. The degree of angiogenesis progression was assessed based on visual pattern recognition of photomicrographs of HUVEC cells.

VEGF secretion [4] = test: Inhibition of VEGF secretion in HUVEC cells; format: cell-based, human; settings: 1 mg/ml
Method: The study was conducted to evaluate anti-angiogenic effect of IS217 in HUVEC cells. […] Bevacizumab (1 mg/mL) was taken as positive control for validation purpose.

`O=C1c2c(O)cccc2Cc2cccc(O)c21` [Anthralin, reference compound] was tested, and the “% increase in TUNEL-Positive cell population w.r.t. control (untreated cells)” value (“% increase” below) (HaCaT cells; 1 μM) was −87.0%.

With `C=C(C)[C@@H]1CC[C@]2(C(=O)O)CC[C@]3(C)[C@H](CC[C@@H]4[C@@]5(C)CC[C@H](O)C(C)(C)[C@@H]5CC[C@]43C)[C@@H]12` [BA, betullininc acid, reference compound] the “% increase” value (HaCaT cells; 10 μg/ml) was 21.3%, the “% increase” value (HaCaT cells; 20 μg/ml) was 48.2% and the “% increase” value (HaCaT cells; 50 μg/ml) was 61.6%.

With `COc1cc(/C=C/C(=O)CC(=O)/C=C/c2ccc(O)c(OC)c2)ccc1O` [Curcumin] the inhibition at 10 µM (IL-23 secretion; Homo sapiens, THP-1, curcumin 10 μM, read-out: inhibition of IL-23 w.r.t. control LPS and IFN-γ levels) was 91.6%, the “inhibition of IL-23 w.r.t. control LPS and IFN-γ levels” value (IL-23 secretion; curcumin, second concentration not given) was 90.6% and the inhibition at 1 µM (IL-17 secretion; curcumin 1 μM) was 40.5%. The inhibition at 10 µM (IL-17 secretion; curcumin 10 μM) was 42.5%, the “% increase” value (HaCaT cells; 10 μM) was −72.2% and the “% increase” value (HaCaT cells; 20 μM) was −76.1%. It also gave an inhibition at 1 µM (VEGF secretion [1]) of 22.8%.

With `CN(Cc1cnc2nc(N)nc(N)c2n1)c1ccc(C(=O)N[C@@H](CCC(=O)O)C(=O)O)cc1` [methotrexate, reference compound] the “inhibitory activity against TPA induced increase in ear thickness” value ([2]; MTX 0.75 mg/kg) was 24.95%, the “inhibitory activity against TPA induced increase in ear thickness” value ([2]; MTX 1.5 mg/kg) was 46.06% and the “50% inhibition of cell proliferation (IC50)” value [3] was “not achieved”.

`CC1=C(/C=C/C(C)=C/C=C/C(C)=C/C(=O)O)C(C)(C)CCC1` [retinoic acid] was tested, and the inhibition at 1 µM (VEGF secretion [1]) was 22.8%.

In the case of “Bevacizumab: positive control, commercial formulation Avastin®, anti-VEGF”, the “Tube formation assay results, Avg” value (HUVEC cells; Bevacizumab + VEGF) is reported as 0.44, the “Tube formation assay results, Avg” value (HUVEC cells; Bevacizumab, without VEGF) is reported as 0.33 and the “inhibition of tube formation as compared to VEGF stimulation control” value (HUVEC cells; HUVEC, bevacizumab 1000 μg/ml) is reported as 91.1%. For the same compound, the “inhibition of VEGF” value (VEGF secretion [4]) was 94.51%.
